The record followed here is publication PMC11787452, “Substrate and inhibitor specificity of Plasmodium nucleoside transporters ENT1 orthologs” (The Journal of Biological Chemistry, 2024).

In one data set the target is T1, PbENT1 (Plasmodium berghei, UniProt A0A509AYF4).
T1 construct: 10xHis (N); made in house; host or cells: Sf9 insect cells (baculovirus)
T1 sequence (A0A509AYF4 1-412): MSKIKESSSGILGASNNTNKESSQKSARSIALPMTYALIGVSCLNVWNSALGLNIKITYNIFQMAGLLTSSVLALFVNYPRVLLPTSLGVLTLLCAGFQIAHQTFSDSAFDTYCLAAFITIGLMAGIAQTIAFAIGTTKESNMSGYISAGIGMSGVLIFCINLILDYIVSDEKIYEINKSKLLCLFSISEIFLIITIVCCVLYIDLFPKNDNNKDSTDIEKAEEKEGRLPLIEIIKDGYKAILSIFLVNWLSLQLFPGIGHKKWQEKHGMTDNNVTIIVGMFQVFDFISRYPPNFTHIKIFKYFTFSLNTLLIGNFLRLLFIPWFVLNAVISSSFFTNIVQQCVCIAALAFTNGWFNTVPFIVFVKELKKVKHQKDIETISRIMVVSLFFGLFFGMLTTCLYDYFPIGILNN
The data set is described as follows: ITC binding to PbENT1. On the procedure: (§1) All the constructs were subcloned and inserted into a modified pFastBac with an N-terminal 10 × His tag. The baculovirus was generated in DH10Bac for recombinant protein expression. After 72 h of infection, Sf9 insect cells were harvested. For structural determination of the PfENT1 protein, Sf9 cells were solubilized in buffer containing 25 mM MES (pH 6.0), 150 mM NaCl, 2% (w/v) n-dodecyl-β-D-maltopyranoside (DDM), and protease inhibitor cocktail (0.8 μM aprotinin, 2 μM pepstatin, and 5 μg/ml leupeptin) at 4 °C for 2 h. After centrifugation at 18,000 rpm for 45 min at 4 °C, the detergent-soluble supernatant was collected via centrifugation at 4 °C for 60 min and incubated with Ni-NTA resin (QIAGEN) at 4 °C for 20 min. The resin was further washed with 25 mM MES pH 6.0, 150 mM NaCl, 10 mM imidazole, and 0.05% (w/v) DDM and eluted with buffer containing 25 mM MES pH 6.0, 150 mM NaCl, 300 mM imidazole, and 0.05% (w/v) DDM. The protein was further purified via size-exclusion chromatography (Superdex 200 Increase 10/300; GE Healthcare) in buffer containing 25 mM MES (pH 6.0), 150 mM NaCl, and 0.05% (w/v) DDM. The peak fractions were pooled and concentrated to 10∼50 μM for the nucleoside-binding assay. The protein purification of the bacterial nucleoside transporter NupG was performed as described in previous studies ([35]).
(§2) […] binding to ENTs was measured at 25 °C via a MicroCal PEAQ-ITC. The purified ENT protein was concentrated to 25 to 50 μM for ITC experiments. The nucleoside was diluted to 5 mM via the same buffer employed for protein purification, which consisted of 25 mM MES (pH 6.0), 150 mM NaCl, and 0.05% DDM. The inhibitor was diluted to 250 μM via the same buffer employed for protein purification, which consisted of 25 mM MES (pH 6.0), 150 mM NaCl, and 0.05% DDM. All the titrations were repeated three times.

The next data set addresses T2, PfENT1 (Plasmodium falciparum, UniProt Q8IDM6).
T2 construct: 10xHis (N); made in house; host or cells: Sf9 insect cells (baculovirus)
The data set is described as follows: ITC binding to PfENT1. The settings on record: 25 °C, 25 mM MES pH 6.0, 150 mM NaCl, 0.05% DDM, read-out: Kd (binding affinity for PfENT1). On the procedure: as §1, §2

Another data set relates to HepG2 cells. Put plainly: Cytotoxicity assay (Cell Counting Kit-8) on HepG2 cells. The settings on record: 1.5 to 400 μM, 48 h, compared with GSK4, GSK4-1, GSK4-2. The format is cell-based. On the procedure: (§3) HepG2 and 293T cells were obtained from ATCC and cultured in Dulbecco’s modified Eagle’s medium supplemented with 10% fetal bovine serum and 1% penicillin-streptomycin (Gibco). Cells were maintained at 37 °C in a humidified atmosphere containing 5% CO2. Cells were seeded at a density of 5 × 10^3 cells per well in 96-well plates and allowed to adhere for 24 h before treatment. Cells were treated with the test compounds at concentrations ranging from 1.5 to 400 μM for 48 h. Control wells were treated with an equivalent concentration of DMSO (vehicle control). Cell viability was assessed using the Cell Counting Kit-8. After 48 h of treatment, 10 μl of Cell Counting Kit-8 solution was added to each well, and the plates were incubated for 2 h at 37 °C. The absorbance was measured at 450 nm using a microplate reader. Cell viability was expressed as a percentage of the control group, and IC50 values were calculated using nonlinear regression analysis (GraphPad Prism 8.0). Data are presented as mean ± SD from three independent experiments, each performed in triplicate.
On the technique in general: Tetrazolium assays rely on reduction of a dye to a coloured formazan, in cell work by metabolically active cells.

The next data set addresses T3, PvENT1 (Plasmodium vivax, UniProt A5K8B0).
T3 construct: 10xHis (N); made in house; host or cells: Sf9 insect cells (baculovirus)
T3 sequence (A5K8B0 1-416): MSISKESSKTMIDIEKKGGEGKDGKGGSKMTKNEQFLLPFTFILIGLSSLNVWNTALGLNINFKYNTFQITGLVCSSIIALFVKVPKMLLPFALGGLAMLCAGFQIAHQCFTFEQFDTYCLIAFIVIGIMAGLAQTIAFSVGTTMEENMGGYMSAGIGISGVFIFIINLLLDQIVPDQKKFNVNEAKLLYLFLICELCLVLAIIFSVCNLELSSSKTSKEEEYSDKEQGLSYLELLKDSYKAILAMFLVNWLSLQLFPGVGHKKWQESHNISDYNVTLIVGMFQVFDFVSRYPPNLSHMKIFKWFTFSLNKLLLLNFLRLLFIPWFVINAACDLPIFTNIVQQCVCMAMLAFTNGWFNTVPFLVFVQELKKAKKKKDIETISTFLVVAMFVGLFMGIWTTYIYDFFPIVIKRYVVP
The data set is described as follows: ITC binding to PvENT1. On the procedure:
as §1, §2

A further data set addresses T4, PfENT1M389L (Plasmodium falciparum, UniProt Q8IDM6, M389L).
T4 construct: 10xHis (N); made in house; host or cells: Sf9 insect cells (baculovirus)
Put plainly: ITC binding to PfENT1M389L. On the procedure:
as §1, §2

In data set [1] the target is T5, bacterial nucleoside transporter NupG (Escherichia coli, UniProt P0AFF4).
T5 construct: made in house
T5 sequence (P0AFF4 1-418): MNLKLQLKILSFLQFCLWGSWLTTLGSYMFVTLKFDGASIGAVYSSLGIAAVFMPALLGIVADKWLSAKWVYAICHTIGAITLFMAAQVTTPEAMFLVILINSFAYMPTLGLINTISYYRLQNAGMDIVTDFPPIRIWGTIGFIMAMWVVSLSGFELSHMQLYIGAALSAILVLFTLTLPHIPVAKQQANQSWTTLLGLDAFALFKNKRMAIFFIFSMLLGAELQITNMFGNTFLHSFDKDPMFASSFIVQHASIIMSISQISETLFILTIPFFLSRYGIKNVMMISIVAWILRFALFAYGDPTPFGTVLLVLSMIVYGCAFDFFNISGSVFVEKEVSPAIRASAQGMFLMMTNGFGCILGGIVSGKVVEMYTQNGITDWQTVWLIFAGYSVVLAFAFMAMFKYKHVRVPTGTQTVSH
Put plainly: ITC binding to NupG. On the procedure:
as §1, with “The protein purification of the bacterial nucleoside transporter NupG was performed as described in previous studies ([35]).” left out
Nucleotide binding to ENTs was measured at 25 °C via a MicroCal PEAQ-ITC. […]

Another data set concerns 293T cells. Put plainly: Cytotoxicity assay (Cell Counting Kit-8) on 293T cells. The following applies: 1.5 to 400 μM, 48 h, compared with GSK4, GSK4-1, GSK4-2. Format: cell-based. On the procedure: as §3

Several values for one entry are separate records, joined by “and”; a condition that tells them apart may be missing. Equal values may be shown once.

T2 sequence (Q8IDM6 whole entry): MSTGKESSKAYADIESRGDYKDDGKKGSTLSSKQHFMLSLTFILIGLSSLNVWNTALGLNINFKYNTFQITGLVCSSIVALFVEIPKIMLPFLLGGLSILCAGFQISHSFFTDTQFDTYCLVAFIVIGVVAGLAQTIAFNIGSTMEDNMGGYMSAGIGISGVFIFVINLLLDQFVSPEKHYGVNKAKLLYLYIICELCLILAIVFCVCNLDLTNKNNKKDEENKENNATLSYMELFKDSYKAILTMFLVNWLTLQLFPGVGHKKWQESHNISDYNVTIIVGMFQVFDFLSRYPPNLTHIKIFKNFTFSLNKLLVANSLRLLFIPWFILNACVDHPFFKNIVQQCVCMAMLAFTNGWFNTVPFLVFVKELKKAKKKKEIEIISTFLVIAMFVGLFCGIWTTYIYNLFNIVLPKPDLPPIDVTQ
T4 sequence (Q8IDM6 whole entry M389L): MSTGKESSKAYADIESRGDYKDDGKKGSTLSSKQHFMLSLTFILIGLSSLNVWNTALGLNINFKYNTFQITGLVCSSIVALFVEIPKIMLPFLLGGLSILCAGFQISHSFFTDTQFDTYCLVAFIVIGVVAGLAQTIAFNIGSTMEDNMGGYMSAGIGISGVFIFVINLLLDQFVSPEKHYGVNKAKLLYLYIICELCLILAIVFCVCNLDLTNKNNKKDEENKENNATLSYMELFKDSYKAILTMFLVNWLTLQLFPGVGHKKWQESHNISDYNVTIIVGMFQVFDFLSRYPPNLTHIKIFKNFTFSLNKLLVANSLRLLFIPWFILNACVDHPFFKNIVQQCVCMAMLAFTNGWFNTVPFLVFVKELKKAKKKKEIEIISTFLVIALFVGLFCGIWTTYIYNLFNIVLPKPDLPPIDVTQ

With `O=C(NCCN1CCCCCC1=O)c1nc(-c2ccccc2)oc1C1CC1` [GSK4-3], the “binding affinity for PbENT1 (in words)” value on PbENT1 was “negligible binding”. Further, the Kd on PfENT1 was 21.9 nM and 13.4 nM and 16.4 nM; on PvENT1 (25 °C, 25 mM MES pH 6.0, 150 mM NaCl, 0.05% DDM, read-out: Kd (binding affinity for PvENT1)) it was 57.2 nM and 37.6 nM and 30.8 nM; at PfENT1M389L (Kd (binding to PfENT1M389L), 25 °C, pH 6.0) it was 44.4 nM. Further, the “cytotoxicity (in words)” value with HepG2 cells and with 293T cells was “lower cytotoxicity” each time. For the same compound, on PvENT1, the “binding affinity for PvENT1 (in words)” value is “comparable binding”. Besides, the “increase in binding affinity for PfENT1M389L compared with parent compound GSK4” value at PfENT1M389L is on record as 6 fold. Also, the “binding to NupG (in words)” value in data set [1] is given as “cannot bind”.

One may read the Kd as the constant that tells how readily two partners part at equilibrium.
